Results reported in patent publication US9701689B2, “Substituted pyridines and pyridazines as CCR10 receptor inhibitors” (KYOWA HAKKO KIRIN CO., LTD., priority 2012, dated 2017).

Molecular target: T1, human CCR10 (Homo sapiens, UniProt P46092)
T1 construct: expressed in transfected cells; host or cells: KJMGER8 cells (Namalwa cell-derived line), beta-estradiol-induced; hCCR10G16 cells
T1 sequence (P46092 1-362): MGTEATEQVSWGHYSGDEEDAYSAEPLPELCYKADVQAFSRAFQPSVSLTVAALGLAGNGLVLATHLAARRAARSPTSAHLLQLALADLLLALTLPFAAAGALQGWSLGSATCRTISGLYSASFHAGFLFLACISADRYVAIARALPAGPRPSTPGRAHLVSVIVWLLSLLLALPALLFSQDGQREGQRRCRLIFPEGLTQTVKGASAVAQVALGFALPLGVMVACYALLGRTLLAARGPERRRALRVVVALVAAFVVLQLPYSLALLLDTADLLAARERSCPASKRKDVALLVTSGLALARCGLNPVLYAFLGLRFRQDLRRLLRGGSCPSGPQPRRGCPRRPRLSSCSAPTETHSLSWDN
Experiment: CCR10 antagonistic effect: calcium assay of human CCR10 (CTACK-induced increase of intracellular calcium in hCCR10G16 cells)
Format: cell-based
Details: at a concentration of not more than 1000 nmol/L; human CCR10-expressing hCCR10G16 cells, 300 nmol/L CTACK added; read-out: inhibition of increase in the calcium ion concentration
Outline: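 KJMGER8-derived hCCR10G16 cells (CCR10 plus Gα16, induced 24 h with 10 nmol/L β-estradiol), Fluo-3 loaded, preincubated with compound 30 min at 37 °C. Stimulated with CTACK (300 nmol/L solution before addition); calcium read ~5 min by FDSS, max−min fluorescence; % inhibition vs control.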

SMILES	inhibition at up to 1 µM [%]
COc1ccc(Nc2cc(S(N)(=O)=O)ncc2C(=O)N2CCC(c3ccc(F)cc3)CC2)c(Cl)c1 [Compound 92, 4-(2-chloro-4-methoxyphenylamino)-5-[4-(4-fluorophenyl)piperidine-1-carbonyl]pyridine-2-sulfonamide]	≥ 50
Cc1c(S(=O)(=O)Nc2ccon2)ncc(C(=O)N2CCC(c3ccc(F)cc3)CC2)c1NCc1ccccn1 [Compound 223, 5-[4-(4-fluorophenyl)piperidine-1-carbonyl]-N-(isoxazol-3-yl)-3-methyl-4-(pyridin-2-ylmethylamino)pyridine-2-sulfonamide]	≥ 50
Cc1ccc(Nc2c(C(=O)N3CCC(c4ccc(F)cc4)CC3)cnc(S(N)(=O)=O)c2Cl)c(F)c1 [Compound 328, 3-chloro-4-(2-fluoro-4-methylphenylamino)-5-[4-(4-fluorophenyl)piperidine-1-carbonyl]pyridine-2-sulfonamide]	≥ 50
NS(=O)(=O)c1ncc(C(=O)N2CCC(c3ccccc3)CC2)c(Nc2cccc(Cl)c2)c1Cl [Compound 308, 3-chloro-4-(3-chlorophenylamino)-5-(4-phenylpiperidine-1-carbonyl)pyridine-2-sulfonamide]	≥ 50
Cc1cnc(C)c(Nc2c(C(=O)N3CCC(c4ccc(F)cc4)CC3)cnc(S(N)(=O)=O)c2Cl)c1 [Compound 326, 3-chloro-4-(2,5-dimethylpyridin-3-ylamino)-5-[4-(4-fluorophenyl)piperidine-1-carbonyl]pyridine-2-sulfonamide]	≥ 50
Cc1cccc(Nc2c(C(=O)N3CCC(O)(c4ccc(F)cc4)CC3)cnc(S(N)(=O)=O)c2Cl)c1 [Compound 199, 3-chloro-5-[4-(4-fluorophenyl)-4-hydroxypiperidine-1-carbonyl]-4-(m-tolylamino)pyridine-2-sulfonamide]	≥ 50
NS(=O)(=O)c1cc(Nc2cc(F)ccc2Cl)c(C(=O)N2CCC(c3ccc(F)cc3)CC2)cn1 [Compound 70, 4-(2-chloro-5-fluorophenylamino)-5-[4-(4-fluorophenyl)piperidine-1-carbonyl]pyridine-2-sulfonamide]	≥ 50
Cc1cc(F)ccc1Nc1cc(S(=O)(=O)NC2CC2)ncc1C(=O)N1CCC(c2ccc(F)cc2)CC1 [Compound 5, N-cyclopropyl-4-(4-fluoro-2-methylphenylamino)-5-[4-(4-fluorophenyl)piperidine-1-carbonyl]pyridine-2-sulfonamide]	≥ 50
COc1cc(F)ccc1Nc1cc(S(N)(=O)=O)ncc1C(=O)N1CCC(c2ccc(F)cc2)CC1 [Compound 99, 4-(4-fluoro-2-methoxyphenylamino)-5-[4-(4-fluorophenyl)piperidine-1-carbonyl]pyridine-2-sulfonamide]	≥ 50
Cc1cc(NS(=O)(=O)c2ncc(C(=O)N3CCC(c4ccc(F)cc4)CC3)c(Nc3ccc(F)c(F)c3)c2C)sn1 [Compound 301, 4-(3,4-difluorophenylamino)-5-[4-(4-fluorophenyl)piperidine-1-carbonyl]-3-methyl-N-(3-methylisothiazol-5-yl)pyridine-2-sulfonamide]	≥ 50
Cc1cccc(Nc2c(C(=O)N3CC4CN(c5ccc(F)cc5)CC4C3)cnc(S(N)(=O)=O)c2Cl)c1 (centres unmarked) [Compound 213, 3-chloro-5-[5-(4-fluorophenyl)octahydropyrrolo[3,4-c]pyrrole-2-carbonyl]-4-(m-tolylamino)pyridine-2-sulfonamide]	≥ 50
CCCNC(=O)NS(=O)(=O)c1cc(Nc2ccc(Cl)cc2C)c(C(=O)N2CCC(c3ccc(F)cc3)CC2)cn1 [Compound 170, 4-(4-chloro-2-methylphenylamino)-5-[4-(4-fluorophenyl)piperidine-1-carbonyl]-N-(propylcarbamoyl)pyridine-2-sulfonamide]	≥ 50
Cc1ccc(F)cc1Nc1cc(S(N)(=O)=O)ncc1C(=O)N1CCC(c2ccc(F)cc2)CC1 [Compound 62, 4-(5-fluoro-2-methylphenylamino)-5-[4-(4-fluorophenyl)piperidine-1-carbonyl]pyridine-2-sulfonamide]	≥ 50
CCOC(=O)NS(=O)(=O)c1cc(Nc2ccc(F)cc2C)c(C(=O)N2CCC(c3ccc(F)cc3)CC2)cn1 [Compound 174, ethyl 4-(4-fluoro-2-methylphenylamino)-5-[4-(4-fluorophenyl)piperidine-1-carbonyl]pyridin-2-ylsulfonylcarbamate]	≥ 50
NS(=O)(=O)c1ncc(C(=O)N2CCC(c3ccc(F)cc3)CC2)c(Nc2cc(F)ccc2Cl)c1Cl [Compound 325, 3-chloro-4-(2-chloro-5-fluorophenylamino)-5-[4-(4-fluorophenyl)piperidine-1-carbonyl]pyridine-2-sulfonamide]	≥ 50
NS(=O)(=O)c1cc(Nc2cc(F)c(Cl)cc2Cl)c(C(=O)N2CCC(c3ccc(F)cc3)CC2)cn1 [Compound 71, 4-(2,4-dichloro-5-fluorophenylamino)-5-[4-(4-fluorophenyl)piperidine-1-carbonyl]pyridine-2-sulfonamide]	≥ 50
Cc1cc(F)ccc1Nc1cc(S(=O)(=O)Nc2cncnc2)ncc1C(=O)N1CCC(c2ccc(F)cc2)CC1 [Compound 156, 4-(4-fluoro-2-methylphenylamino)-5-[4-(4-fluorophenyl)piperidine-1-carbonyl]-N-(pyrimidin-5-yl)pyridine-2-sulfonamide]	≥ 50
NS(=O)(=O)c1ncc(C(=O)N2CCC3(CC2)COc2ccccc23)c(NC2(c3ccccc3)CC2)c1Cl [Compound 297, 3-chloro-4-(1-phenylcyclopropylamino)-5-(2H-spiro[benzofuran-3,4′-piperidin]-1′-ylcarbonyl)pyridine-2-sulfonamide]	≥ 50
Cc1ccc(Nc2c(C(=O)N3CCC(c4ccc(F)cc4)CC3)cnc(S(=O)(=O)Nc3ccon3)c2C)cc1C [Compound 263, 4-(3,4-dimethylphenylamino)-5-[4-(4-fluorophenyl)piperidine-1-carbonyl]-N-(isoxazol-3-yl)-3-methylpyridine-2-sulfonamide]	≥ 50
COc1cc(C)c(Nc2cc(S(N)(=O)=O)ncc2C(=O)N2CCC(c3ccc(F)cc3)CC2)cc1Cl [Compound 104, 4-(5-chloro-4-methoxy-2-methylphenylamino)-5-[4-(4-fluorophenyl)piperidine-1-carbonyl]pyridine-2-sulfonamide]	≥ 50
NS(=O)(=O)c1cc(Nc2ccc(Br)cc2Cl)c(C(=O)N2CCC(c3ccc(F)cc3)CC2)cn1 [Compound 90, 4-(4-bromo-2-chlorophenylamino)-5-[4-(4-fluorophenyl)piperidine-1-carbonyl]pyridine-2-sulfonamide]	≥ 50
NS(=O)(=O)c1ncc(C(=O)N2CC(c3ccc(F)cc3)C2)c(Nc2cccc(Cl)c2)c1Cl [Compound 283, 3-chloro-4-(3-chlorophenylamino)-5-[3-(4-fluorophenyl)azetidine-1-carbonyl]pyridine-2-sulfonamide]	≥ 50
Cc1cc(F)ccc1Nc1cc(S(=O)(=O)N2CCC(C(N)=O)CC2)ncc1C(=O)N1CCC(c2ccc(F)cc2)CC1 [Compound 138, 1-{4-(4-fluoro-2-methylphenylamino)-5-[4-(4-fluorophenyl)piperidine-1-carbonyl]pyridin-2-ylsulfonyl}piperidine-4-carboxamide]	≥ 50
